Laboratory results published in the NIST ThermoML archive (doi:10.1016/j.jct.2018.12.014).
Numbers after ± are expanded uncertainties.

Assays:
[1] = 101 kPa, Liquid, Vibrating tube method
[2] = refractive index (Na D-line) (dimensionless); details: 101 kPa, Liquid, Standard Abbe refractometry
[3] = wn = mass fraction of the nth substance listed; details: 101 kPa, Liquid, Vibrating tube method, w2 = 0
[4] = refractive index (Na D-line) (dimensionless); wn = mass fraction of the nth substance listed; details: 101 kPa, Liquid, Standard Abbe refractometry, w2 = 0

CN(CCO)CCO [N-methyldiethanolamine]
Details | mass density, [1] [kg/m3] | refractive index, [2]
293.15 K | 1040.31 ± 8.4 | 1.46942 ± 0.0042
298.15 K | 1036.42 ± 8.3 | 1.46732 ± 0.0042
303.15 K | 1032.55 ± 8.3 | 1.46498 ± 0.0042
308.15 K | 1028.7 ± 8.3 | 1.46285 ± 0.0042
313.15 K | 1025.14 ± 8.2 | 1.46099 ± 0.0042
318.15 K | 1021.34 ± 8.2 | 1.45879 ± 0.0042
323.15 K | 1017.55 ± 8.2 | 1.4568 ± 0.0042
328.15 K | 1013.89 ± 8.2 | 1.45461 ± 0.0042
333.15 K | 1010.07 ± 8.1 | 1.45252 ± 0.0042
338.15 K | 1006.37 ± 8.1 | 1.45042 ± 0.0042
343.15 K | 1002.33 ± 8.1 | 1.44855 ± 0.0042
348.15 K | 998.62 ± 8 | –
353.15 K | 995.05 ± 8 | –

CN(CCO)CCO [N-methyldiethanolamine] + C[P+](c1ccccc1)(c1ccccc1)c1ccccc1.[Br-]
Details | mass density, [3] [kg/m3] | refractive index, [4]
293.15 K | 1040.31 ± 8.4 | 1.46942 ± 0.0042
298.15 K | 1036.42 ± 8.3 | 1.46732 ± 0.0042
303.15 K | 1032.55 ± 8.3 | 1.46498 ± 0.0042
308.15 K | 1028.7 ± 8.3 | 1.46285 ± 0.0042
313.15 K | 1025.14 ± 8.2 | 1.46099 ± 0.0042
318.15 K | 1021.34 ± 8.2 | 1.45879 ± 0.0042
323.15 K | 1017.55 ± 8.2 | 1.4568 ± 0.0042
328.15 K | 1013.89 ± 8.2 | 1.45461 ± 0.0042
333.15 K | 1010.07 ± 8.1 | 1.45252 ± 0.0042
338.15 K | 1006.37 ± 8.1 | 1.45042 ± 0.0042
343.15 K | 1002.33 ± 8.1 | 1.44855 ± 0.0042
348.15 K | 998.62 ± 8 | –
353.15 K | 995.05 ± 8 | –
